This note sets out measurements from EP0353047B1, “Use of imidazopyrazole derivatives as analgesics and anti-inflammatory agents” (Sankyo Company Limited, priority 1988, dated 1990).

The test system of data set [1] is carrageenan-induced edema. Description: Anti-inflammatory effect (carrageenan edema method). It is filed as in vivo, rats of the Wistar strain. To be noted: Rattus norvegicus, percent inhibition of carrageenan-induced edema, oral. The procedure: The percent inhibition against carrageenan-induced edema in rats of the Wistar strain, using the conventional method of C.A. Winter, E.A. Risley, G.W. Nuss [J. Pharmacol., Exp. Therap., 141, 369 (1963)]. Except where otherwise noted, the dose of test compound was 50 mg/kg.

Data set [2] relates to inflammation induced by anti-rat IgG rabbit serum. Description: Anti-inflammatory effect (reversed passive alusas reaction, Evans blue extraction). The format is in vivo, rats of the Sprague-Dawley strain. Particulars: 2.5 h, percent inhibition of inflammation relative to control group, oral. Here is the method: The test animals were rats of the Sprague-Dawley strain, which had first been fasted for 17 hours. The hair was trimmed from their dorsal portions by means of a hair clipper, and 0.1 ml/site of anti-rat IgG rabbit serum was injected intracutaneously at the trimmed part to induce inflammation. Except in the case of the control animals, to which no anti-inflammatory drug was administered, the test drug was administered orally immediately before inflammation was induced. Except where otherwise noted, the dose of test compound was 50 mg/kg. Two hours after induction of inflammation, a 1% by volume solution of Evans blue in physiological saline was injected intravenously into the tail of each rat in an amount of 1 ml per each animal. 30 minutes after this injection, the rats were sacrificed with carbon dioxide and their skins were peeled off to extract the chromogen of the blue spots. In more detail, the skins were cut into small pieces and extracted with 5 ml of an extraction solvent at room temperature for 2 days. The supernatant obtained by centrifugation was then measured spectrophotometrically at an absorption wavelength of 605 nm. The percent inhibition of inflammation of the group of rats to which the test drug was administered was determined relative to the control group.

Data set [3] deals with rats of the Wistar strain. Nature of the data set: Analgesic effect (Randall-Selitto method). The format is in vivo. Particulars: oral; for Analgesic effect (Randall-Selitto): dose 25 mg/kg (*). Here is the method:
These tests were conducted according to the Randall-Selitto method using rats of the Wistar strain [L.O. Randall, J.J. Selitto: Arch. int. Pharmacodyn. 111, 409 (1957)]. Except where otherwise noted, the dose of test compound was 50 mg/kg.

Data set [4] deals with male mice of the ddy strain. Description: Acute toxicity. It is filed as in vivo. Particulars: fraction of animals; dose 300 mg/kg oral in 0.5% carboxymethyl cellulose, observed for 7 days. Here is the method:
(§1) The test animals employed were male mice of the ddy strain (age: 5 weeks). […] The dose of test compound was 300 mg/kg.

Data set [5] deals with T1, 5-lipoxygenase (Cavia porcellus, UniProt A0A286X958).
T1 construct: The supernatant was isolated as an enzyme fraction; from tissue; host or cells: Casein-elicited peritoneal polymorphonuclear leukocytes of male Hartley guinea pigs; sonicated, 10,000 G supernatant
T1 sequence (A0A286X958 1-674): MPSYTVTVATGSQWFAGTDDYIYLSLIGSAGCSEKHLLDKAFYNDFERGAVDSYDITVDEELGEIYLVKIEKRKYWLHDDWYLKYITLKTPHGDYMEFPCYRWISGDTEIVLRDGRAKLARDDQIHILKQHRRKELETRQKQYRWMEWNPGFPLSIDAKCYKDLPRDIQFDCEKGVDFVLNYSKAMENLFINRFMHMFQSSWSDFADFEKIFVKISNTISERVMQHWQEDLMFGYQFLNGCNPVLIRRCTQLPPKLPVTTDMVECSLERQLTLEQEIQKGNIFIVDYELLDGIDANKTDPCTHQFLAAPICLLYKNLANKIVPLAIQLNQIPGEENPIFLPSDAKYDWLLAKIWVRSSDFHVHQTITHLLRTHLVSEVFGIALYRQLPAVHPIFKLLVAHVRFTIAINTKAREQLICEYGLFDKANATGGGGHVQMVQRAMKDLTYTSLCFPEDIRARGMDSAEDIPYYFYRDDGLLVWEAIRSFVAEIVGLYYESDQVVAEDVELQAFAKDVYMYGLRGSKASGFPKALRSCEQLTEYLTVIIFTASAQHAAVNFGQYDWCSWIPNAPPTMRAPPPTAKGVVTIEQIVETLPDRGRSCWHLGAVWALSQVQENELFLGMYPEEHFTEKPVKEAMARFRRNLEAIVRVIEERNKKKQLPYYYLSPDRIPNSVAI
Nature of the data set: 5-Lipoxygenase inhibitory activity (5-HITE production by polymorphonuclear leukocyte enzyme fraction). It is filed as biochemical, male guinea pigs of the Hartley strain. Particulars: inhibition of production of 5-HITE from [14C]-arachidonic acid; 30°C, 30 minutes, pH 7.4; read-out: IC₅₀ (converted). Here is the method:
The preparation of polymorphonuclear leukocytes was carried out by the method of Sbarra et al [Sbarra A.J. and Karnovsky, M. L.; J. Biol. Chem., 234, 1355 - 1362 (1959)]. Specifically, a 2% w/v aqueous casein solution was administered intraperitoneally to male guinea pigs of the Hartley strain, each weighing about 400 - 500 g. The polymorphonuclear leukocytes were harvested from the peritoneal exudate 14 - 16 hours after the administration. The preparation of enzyme was carried out by the method of Yoshimoto et al [Yoshimoto, T., Furakawa, M., Yamamoto, S., Horie, T. and Watanabe-Kohno, S.; Biochem. Biophys. Commun., 116, 612 - 618 (1983)]. The harvested polymorphonuclear leukocytes were suspended in a 50 mM phosphate buffer solution (pH = 7.4) containing 10% ethylene glycol and 1mM EDTA at a density of 1 x 10⁸ cells/ml. The suspension was subjected to ultrasound twice, each time for 30 seconds at 20 KHz, and was then centrifuged for 10 minutes at 10,000 G. The supernatant was isolated as an enzyme fraction, which was stored at -80°C. The enzyme assay was carried out by a modification of Ochi's method [Ochi, K., Yoshimoto, T., Yamamoto., S., Taniguchi, K. and Miyamoto, T.; J. Biol. Chem., 258, 5754-5758 (1983)]. Specifically, 2 mM CaCℓ₂, 1 mM glutathione, 2 mM ATP (adenosine-5′-triphosphate), 16 µM [¹⁴C]-arachidonic acid (0.16 µCi, dissolved in 5 µl ethanol), the test compound (dissolved in 4 µl DMSO) and the enzyme solution (containing 200 µg of protein) were made up to a final volume of 200 µl in a 50 mM potassium phosphate buffer solution (pH = 7.4). The test compound and the enzyme were preincubated at 30°C for 5 minutes. After the addition of the arachidonic acid, the mixture was incubated at 30°C for 30 minutes. The reaction was stopped by the addition of 50µl of 0.2N citric acid. The reaction mixture was then extracted with ethyl acetate and the extract was concentrated under a stream of nitrogen. The concentrate was subjected to thin layer chromatography and eluted with a 85 : 15 : 0.1 by volume mixture of diethyl ether, petroleum ether and acetic acid. The 5-hydroxyicosatetraenoic acid (5-HITE) fraction of the plate was identified with a radioactive scanner and the radioactivity was measured. The IC₅₀ (µg/ml) was calculated against the inhibitory rate of the production of 5-HITE of a control group, to which a test compound was not administered.

For data set [6], the system named is carrageenan-induced edema. Nature of the data set: Anti-inflammatory effect (carrageenan edema method). It is filed as in vivo, rats of the Wistar strain. Particulars: Rattus norvegicus; ID₅₀, oral, Wistar rats.
Data set [7] can be described thus: Acute toxicity. It is filed as in vivo. Particulars: mouse, in vivo; fraction of animals; dose 300 mg/kg oral in 0.5% carboxymethyl cellulose, observed for 7 days. Here is the method:
as §1

Molecules are shown by their SMILES. Marks after values point to notes of the source that are not given here.

Turning to `CCc1c(-c2ccccc2)nn2cc[nH]c12` [Example 10], the inhibition in vivo at 50 mg/kg in data set [1] (dose 50 mg/kg) turned out to be 51.3%; in data set [2] (dose 50 mg/kg), 56.3%. For the same compound, in data set [3] (Rattus norvegicus, fraction of animals, dose 50 mg/kg), the responders at 50 mg/kg is 100%. Moreover, in data set [4], the “Toxicity (mouse)” value is 0/3. Besides, the IC50 in data set [5] is 5.21 µM.
For the compound `CC(C)c1c(-c2ccccc2)nn2cc[nH]c12` [Example 11], the IC50 in data set [5] was 8.88 µM.
The same measure, in the same setting: then `CCCCc1c(-c2ccccc2)nn2cc[nH]c12` [Example 12], with 3.93 µM.
As to `Cc1nn2cc[nH]c2c1-c1ccccc1` [Example 30, 6-methyl-7-phenyl-1H-imidazo[1,2-b]pyrazole], in data set [1], the inhibition in vivo at 25 mg/kg was determined as 50%. For the same compound, the 50% effective dose (ED50) in data set [3] (Rattus norvegicus, ED₅₀, Wistar rats) was 5.9 mg/kg; in data set [6], 25 mg/kg. Also, in data set [3] (fraction of animals), the “Analgesic effect (Randall-Selitto)” value was 5/5*. Besides, in data set [4], the “Toxicity (mouse)” value is 0/3. In addition, in data set [5], the IC50 was 2.53 µM.
As for `Cc1ccc(-c2cnn3cc[nH]c23)cc1` [Example 35, 7-(p-methylphenyl)-1H-imidazo[1,2-b]pyrazole], the inhibition in vivo at 25 mg/kg is 56.4% in data set [1] and 69.9% in data set [2] (dose 25 mg/kg (*)). Moreover, in data set [3] (fraction of animals), the “Analgesic effect (Randall-Selitto)” value is recorded as 5/5*. In data set [7], this compound returned a mortality at 168 h of 30%.
With `CCCCCCCCCc1c(-c2ccccc2)nn2cc[nH]c12` [Example 41], the IC50 in data set [5] is 2.13 µM.
